According to patent US5432165A, “Methods for the treatment of infection caused by Hepatitis B virus (HBV)” (priority 1992, dated 1995):
Entries after “also recorded” stand apart in the source; their conditions may differ.

Experiments:
hepatitis B virus (HBV) = test: Effect of oral FIAU on plasma HBV DNA and HBV DNA polymerase in HIV-infected patients with chronic hepatitis B; assay type: in vivo, human
Procedure: Effects on hepatitis were evaluated principally by changes in HBV DNA and viral DNA polymerase. Secondary markers were surface antigen and e antigen. The hepatitis tests were done at Baseline and on Days 3, 7, 14, 21 (7 days post-treatment) and 42 (28 days post-treatment).
Of the 13 "tolerance" patients, e.g., non-hepatitis patients, enrolled, all received the study drug and all are included in the safety analysis. […] They had received a single dose of the study drug, and has, therefore, been included in the safety analysis, but excluded from the efficacy analysis. All of the remaining hepatitis patients had sufficient baseline levels of HBV DNA (>20 pg/ml) and viral DNA polymerase (>300 cpm) in their serum to be useful for determining changes associated with FIAU dosing and all completed the full two weeks of dosing. Therefore, the remaining six hepatitis patients were included in both the safety and efficacy analyses.
The results of clinical investigations conducted at submilligram per kilogram daily doses of FIAU are presented below. […]

[1] = Peak and trough plasma levels of FIAU and FAU by HPLC; assay type: in vivo, human; settings: for concentration at 24 h: FIAU trough plasma concentration
From the text: Additionally at Baseline, archive plasma samples were taken.

[2] = Adverse Experience Summary (Table II), HIV-infected patients; assay type: in vivo, human
From the text: A summary of the adverse effects experienced by some of the patients involved in the various dosage studies conducted are presented in Table II, attached hereto. Where no entry is given, no adverse experience was observed.

HSV-1 = settings: read-out: in vitro ED90; cited from earlier work
[3] = typical; read-out: cellular toxicity concentration (ID50); cited from earlier work
[4] = month long TID dosing of FIAC; cited from earlier work
[5] = 0.1 mg/kg-day, two patients with HBV DNA under 1000 pg/ml
[6] = 0.5 mg/kg-day, four patients with entry HBV DNA <1000 pg/ml
[7] = human, in vivo, po, 1 mg/kg/day, 24 h

## O=c1[nH]c(=O)n([C@@H]2O[C@H](CO)[C@@H](O)[C@@H]2F)cc1I [FIAU, 1-(2'-deoxy-2'-fluoro-β-D-arabinofuranosyl)-5-iodouracil]
Hepatitis B virus (HBV); [5]
  average reduction of serum HBV DNA at Day 3 and One Week visits: 60%
  average reduction of serum HBV DNA by end of therapy at two weeks: 93%
  suppression of serum HBV DNA one week post-treatment: 86%
Hepatitis B virus (HBV); 0.1 mg/kg-day, two patients with baseline over 1000 pg/ml
  drop of HBV DNA by the end of therapy: ≤ 25%
Hepatitis B virus (HBV); [6]
  average HBV DNA level, percent of baseline, end of one week of dosing: less than 20%
  average HBV DNA level, percent of baseline, end of two week treatment: less than 10%
  drop of average serum HBV DNA after the first two days of therapy: 61%
  suppression of average HBV DNA one month post-treatment: over 75%
Hepatitis B virus (HBV); 0.5 mg/kg-day, single patient with baseline above 1000 pg/ml
  drop of serum HBV DNA in one week of therapy: 83%
Hepatitis B virus (HBV); 1.0 mg/kg-day
  effect on plasma HBV DNA and viral DNA polymerase levels: rapid, consistent, profound and prolonged effect
  surface antigen and e antigen status: remained positive in all patients to date, with one reported seroreversion of e antigen in Patient 401 approximately 23 weeks post-treatment
Hepatitis B virus (HBV); 1.0 mg/kg-day, five of the six patients
  continuing suppression of HBV DNA polymerase in serum: > 80%
Hepatitis B virus (HBV); 1.0 mg/kg-day, four weeks after therapy
  clearing of HBV DNA from the plasma: two of these became totally negative; also recorded: Two showed a complete clearing of HBV DNA from the plasma
Hepatitis B virus (HBV); 1.0 mg/kg-day, six patients
  average decrease of HBV DNA between Baseline (Day 1) and Day 3: over 70%
Hepatitis B virus (HBV); 1.0 mg/kg-day, two weeks, five of the six patients
  reduction in plasma HBV DNA by the end of therapy: more than 90%
[1]; 1.0 mg/kg-day, steady state, Days 3-14
  FIAU peak plasma concentration, range maximum: 1.66 µg/mL
[1]; FIAU 1.0 mg/kg-day, 14 days
  accumulation in the plasma with continued dosing: Neither FIAU nor FAU tended to accumulate; also recorded: Neither compound tended to accumulate
[1]; human, in vivo, po, 1 mg/kg/day
  FIAU trough plasma value, typical: under 0.2 μg/ml
[1]; [7]
  FIAU peak plasma concentration, mean: 0.58 µg/mL
  FIAU trough plasma concentration, mean: 0.05 µg/mL
[1]; human, in vivo, po, 1 mg/kg/day, FIAU peak plasma concentration, mean
  Cmax at 24 h: 580 ng/mL
[1]; human, in vivo, po, 1 mg/kg/day, FIAU peak plasma value at steady state, average
  Cmax at 2 h: ~1000 ng/mL
[1]; human, in vivo, po, 1 mg/kg/day, mean
  concentration at 24 h: 50 ng/mL
[1]; human, in vivo, po, 1 mg/kg/day, range maximum
  concentration at 24 h: 130 ng/mL
[2]; 0.1 mg/kg-day
  Incidence: ALT elevation, moderate (2.5-5.0x): 2/4
  Incidence: ALT elevation, severe (>5x): 1/4
  Incidence: AST elevation, moderate (2.5-5.0x): 2/4
  Incidence: AST elevation, severe (>5x): 1/4
  Incidence: Fatigue, moderate: 1/4
  Incidence: Hyperbilirubemia, mild: 2/4
  Incidence: Hypercalcemia, mild: 1/4
  Incidence: Hypocalcemia, mild: 1/4
  Incidence: Hypoglycemia, mild: 1/4
  Incidence: Hyponatremia, mild: 1/4
[2]; 0.5 mg/kg-day
  Incidence: ALT elevation, mild (1.25-2.5x): 3/10
  Incidence: ALT elevation, severe (>5x): 2/10
  Incidence: AST elevation, mild (1.25-2.5x): 3/10
  Incidence: AST elevation, moderate (2.5-5.0x): 1/10
  Incidence: AST elevation, severe (>5x): 2/10
  Incidence: Diarrhea, mild: 1/10
  Incidence: Disoriented, mild: 1/10
  Incidence: Fatigue, mild: 3/10
  Incidence: Fatigue, moderate: 1/10
  Incidence: Headache, mild: 2/10
  Incidence: Headache, moderate: 1/10
  Incidence: Hemauria, moderate: 1/10
  Incidence: Hypophosphatemia, moderate: 1/10
  Incidence: Nausea, mild: 3/10
  Incidence: Nausea, moderate: 1/10
  Incidence: Proteinuria, mild: 1/10
  Incidence: Stomatitis, moderate: 1/10
  Incidence: Vomiting, mild: 2/10
  Incidence: Weakness, mild: 2/10
[2]; 1.0 mg/kg-day
  Incidence: ALT elevation, mild (1.25-2.5x): 4/9
  Incidence: ALT elevation, moderate (2.5-5.0x): 1/9
  Incidence: ALT elevation, severe (>5x): 3/9
  Incidence: AST elevation, mild (1.25-2.5x): 4/9
  Incidence: AST elevation, moderate (2.5-5.0x): 1/9
  Incidence: AST elevation, severe (>5x): 3/9
  Incidence: Abdominal Cramping, moderate: 1/9
  Incidence: Constipation, mild: 1/9
  Incidence: Decreases sensations, mild: 1/9
  Incidence: Diarrhea, mild: 2/9
  Incidence: Difficulty focusing, mild: 1/9
  Incidence: Dizziness, mild: 1/9
  Incidence: Fatigue, mild: 2/9
  Incidence: Fatigue, moderate: 1/9
  Incidence: Fatigue, severe: 1/9
  Incidence: Headache, mild: 1/9
  Incidence: Headache, severe: 1/9
  Incidence: Heartbum, mild: 1/9
  Incidence: Light Stools, mild: 1/9
  Incidence: Nausea, mild: 6/9
  Incidence: Nausea, moderate: 1/9
  Incidence: Paresibesia (extremities), mild: 1/9
  Incidence: Vomiting, mild: 1/9
  Incidence: Weakness, mild: 2/9
  Incidence: Weakness, moderate: 1/9
  Incidence: myositis, severe: 1/9
HSV-1
  EC90: ~0.05 µM
[3]
  CC50: ~10 µM
[4]
  accumulation in the plasma: neither FIAC, FIAU, or their metabolites accumulated in the plasma
